# Source: publication PMC9081329, “Pharmacokinetics, Mass Balance, Excretion, and Tissue Distribution of Plasmalogen Precursor PPI-1011” (Frontiers in Cell and Developmental Biology, 2022)
# Assay: Repeat dose tissue distribution study (QWBA, LSC of blood and plasma), 15 daily doses
# Type: in vivo, Sprague-Dawley rats
# Method: Three male rats were administered [^14C]PPI-1011 at 100 mg/kg (100 μCi/kg) once daily for 15 days. One rat was sacrificed at each of the following time points after the administration of the day 15 dose: 24, 48, and 96 h. Terminal blood was collected by cardiac puncture directly into tubes with K2EDTA, an aliquot was stored at 4°C until LSC was performed for radioactivity, while the remaining blood was processed to plasma and stored at −20°C until LSC. Following blood collection, the carcasses were frozen in a cold bath with hexanes and dry ice for at least 8 min and then dried and stored at −70°C for at least 12 h. The carcasses were transferred to a −20°C freezer for at least 12 h before embedding.
# QWBA was used to determine radioactivity concentrations in the caecum (contents and mucosa), large intestine (contents and mucosa), small intestine (contents and mucosa), stomach (contents and mucosa), brain, choroid plexus, spinal cord, bone, skin, adrenal gland, pineal body, pituitary gland, thyroid gland, liver, kidney (cortex, medulla and whole kidney), urinary bladder (contents and wall), brown fat, white fat, eye (lens, uveal tract and whole eye), epididymis, prostate gland, testis, ovary, uterus, lung, exorbital lachrymal gland, Harderian gland, pancreas, salivary gland, skeletal muscle, myocardium, cardiac blood, bone marrow, lymph node, spleen, and thymus. As well, LSC was used to determine the total radioactivity in the whole blood and plasma.
# The whole-body cryosectioning technique described by ([Ullberg, 1977]) was the basis for embedding and cryosectioning the rats assigned to this study. Each frozen carcass was shaved, and then the limbs and tail were removed prior to embedding. Chilled (4°C) 3% CMC (low viscosity) was utilized to provide a firm support of reinforced ice around each rat and for a secure attachment to the microtome stage. Upon thorough freezing of the embedding medium surrounding each rat, the frozen CMC block was removed from the freezing bath and four 3/8 inch holes were drilled into the block. One cryosection quality control standard (CQCS) was prepared with a known amount of radioactivity and at least 1 ml aliquots were added to each of the four drilled holes. CQCS data were utilized to evaluate the overall performance of the QWBA assay.
# Each frozen rat was sagittally trimmed (50–100 μm) at −20°C until exposure of a few target tissues employing a Leica Cryomacrocut heavy-duty microtome (Leica Microsystems Inc.,). Disposable stainless steel Feather type H45L knives (Feather Safety Razor Co., Ltd.) were utilized for trimming and sectioning each frozen rat. Several thinner sections (50 μm) were discarded prior to obtaining multiple 50 μm sections at various cryosectioning levels for QWBA analysis. Upon the collection of at least 60 target tissues in multiple cryosectioning levels, the cryosections were kept in the Cryomacrocut cryochamber for a minimum of 18 h for dehydration depending upon the number of cryosections within the cryochamber. After dehydration was complete, the cryosections were transferred to ambient temperature for processing. Mounted whole-body cryosections and a set of 15 standards were sandwiched between a standard phosphor screen and an exposure cassette. All cryosections were exposed to the phosphor screen for 4-days in a cabinet protected with lead prior to scanning using a Typhoon PhosphorImager (Cytiva). MCID™ Analysis software (InterFocus Ltd.) was utilized to generate a calibration curve of the STD nominal concentrations (nCi/g) versus PhosphorImager response (counts/μm^2 minus background) by weighted (1/x) linear regression analysis ([Potchoiba et al., 1995]; [Potchoiba et al., 1998]). The linear regression curve was then utilized to determine the concentration (nCi/g) of total radioactivity in whole-body tissues and blood. Radioactivity concentrations were expressed as μg Eq/g based on the specific activity of the compound in the final dose formulations. […]
# [1] = 24 hr post 15 daily oral 100 mg/kg
# [2] = 48 hr post 15 daily oral 100 mg/kg
compound,measurement,setting,value
CC/C=C\C/C=C\C/C=C\C/C=C\C/C=C\C/C=C\CCC(=O)O[C@H](CO[14CH2]CCCCCCCCCCCCCCC)COC(=O)CCCCC1CCSS1 (stereo partly shown) [[^14C]PPI-1011],Mean percentage radioactivity (normalized by tissue) at 96 h relative to the 24-h timepoint,15 daily doses,75%
same,Radioactivity in urine within the urinary bladder,15 daily doses,no detection of radioactivity
same,Time of highest blood concentration,15 daily doses,24 HPD
same,"Time of highest levels, adrenal gland",15 daily doses,48 HPD
same,"Time of highest levels, cerebrum",15 daily doses,96 HPD
same,"Time of highest levels, medulla oblongata",15 daily doses,96 HPD
same,"Time of highest levels, nasal turbinates",15 daily doses,48 HPD
same,"Time of highest levels, spinal cord",15 daily doses,96 HPD
same,"Time of highest peak concentration, bladder wall",15 daily doses,48 HPD
same,"Time of highest peak concentration, brown adipose",15 daily doses,24 HPD
same,"Time of highest peak concentration, cecum",15 daily doses,24 HPD
same,"Time of highest peak concentration, esophagus",15 daily doses,24 HPD
same,"Time of highest peak concentration, gastric mucosa",15 daily doses,24 HPD
same,"Time of highest peak concentration, large intestines",15 daily doses,24 HPD
same,"Time of highest peak concentration, ocular lens",15 daily doses,96 HPD
same,"Time of highest peak concentration, prostate",15 daily doses,96 HPD
same,"Time of highest peak concentration, seminal vesicles",15 daily doses,24 HPD
same,"Time of highest peak concentration, small intestines",15 daily doses,24 HPD
same,"Time of highest peak concentration, stomach",15 daily doses,24 HPD
same,"Time of highest peak concentration, subcutaneous adipose",15 daily doses,48 HPD
same,"Time of highest peak concentration, testis",15 daily doses,24 HPD
same,"Time of highest peak concentration, uveal tract",15 daily doses,24 HPD
same,"Time of highest peak concentration, visceral adipose",15 daily doses,48 HPD
same,"Time of highest peak concentration, vitreous body",15 daily doses,24 HPD
same,"Time of highest peak concentration, whole eye",15 daily doses,24 HPD
same,Blood:plasma concentration ratio,"24 HPD, 15 daily doses",2.31
same,Blood:plasma concentration ratio,"48 HPD, 15 daily doses",2.86
same,Blood:plasma concentration ratio,"96 HPD, 15 daily doses",4.23
same,"Radioactivity concentration, Adipose - Brown",[1],2211 μg equivalents/g
same,"Radioactivity concentration, Adipose - Brown (Vessel Wall)",[1],1423 μg equivalents/g
same,"Radioactivity concentration, Adipose - Subcutaneous",[1],1316 μg equivalents/g
same,"Radioactivity concentration, Adipose - Visceral",[1],1402 μg equivalents/g
same,"Radioactivity concentration, Adrenal Gland",[1],1830 μg equivalents/g
same,"Radioactivity concentration, Bladder Wall",[1],102 μg equivalents/g
same,"Radioactivity concentration, Blood - QWBA",[1],55.0 μg equivalents/g
same,"Radioactivity concentration, Bone Marrow",[1],160 μg equivalents/g
same,"Radioactivity concentration, Bone Surface",[1],11.6 μg equivalents/g
same,"Radioactivity concentration, Cecum",[1],300 μg equivalents/g
same,"Radioactivity concentration, Cerebellum",[1],57.8 μg equivalents/g
same,"Radioactivity concentration, Cerebrum",[1],45.7 μg equivalents/g
same,"Radioactivity concentration, Choroid Plexus",[1],186 μg equivalents/g
same,"Radioactivity concentration, Colliculus",[1],68.3 μg equivalents/g
same,"Radioactivity concentration, Diaphragm",[1],204 μg equivalents/g
same,"Radioactivity concentration, Esophagus",[1],161 μg equivalents/g
same,"Radioactivity concentration, Exorbital Lacrimal Gland",[1],98.0 μg equivalents/g
same,"Radioactivity concentration, Gastric Mucosa",[1],415 μg equivalents/g
same,"Radioactivity concentration, Harderian Gland",[1],113 μg equivalents/g
same,"Radioactivity concentration, Intra-Orbital Lacrimal Gland",[1],100 μg equivalents/g
same,"Radioactivity concentration, Kidney",[1],304 μg equivalents/g
same,"Radioactivity concentration, Large Intestines",[1],255 μg equivalents/g
same,"Radioactivity concentration, Liver",[1],412 μg equivalents/g
same,"Radioactivity concentration, Lung",[1],217 μg equivalents/g
same,"Radioactivity concentration, Lymph Node",[1],347 μg equivalents/g
same,"Radioactivity concentration, Medulla Oblongata",[1],51.0 μg equivalents/g
same,"Radioactivity concentration, Muscle",[1],115 μg equivalents/g
same,"Radioactivity concentration, Myocardium",[1],292 μg equivalents/g
same,"Radioactivity concentration, Nasal Turbinates",[1],180 μg equivalents/g
same,"Radioactivity concentration, Ocular - Lens",[1],5.82 μg equivalents/g
same,"Radioactivity concentration, Ocular - Uveal Tract",[1],105 μg equivalents/g
same,"Radioactivity concentration, Ocular - Vitreous Body",[1],2.55 μg equivalents/g
same,"Radioactivity concentration, Ocular - Whole Eye",[1],22.7 μg equivalents/g
same,"Radioactivity concentration, Olfactory Bulb",[1],47.8 μg equivalents/g
same,"Radioactivity concentration, Pancreas",[1],355 μg equivalents/g
same,"Radioactivity concentration, Parotid Gland",[1],296 μg equivalents/g
same,"Radioactivity concentration, Pineal Gland",[1],230 μg equivalents/g
same,"Radioactivity concentration, Pituitary Gland",[1],266 μg equivalents/g
same,"Radioactivity concentration, Prostate",[1],74.6 μg equivalents/g
same,"Radioactivity concentration, Renal Cortex",[1],323 μg equivalents/g
same,"Radioactivity concentration, Renal Medulla",[1],238 μg equivalents/g
same,"Radioactivity concentration, Salivary Gland",[1],308 μg equivalents/g
same,"Radioactivity concentration, Seminal Vesicles",[1],63.2 μg equivalents/g
same,"Radioactivity concentration, Skin - Non-Pigmented",[1],161 μg equivalents/g
same,"Radioactivity concentration, Small Intestines",[1],420 μg equivalents/g
same,"Radioactivity concentration, Spinal Cord",[1],46.8 μg equivalents/g
same,"Radioactivity concentration, Spleen",[1],319 μg equivalents/g
same,"Radioactivity concentration, Stomach",[1],133 μg equivalents/g
same,"Radioactivity concentration, Testis",[1],70.3 μg equivalents/g
same,"Radioactivity concentration, Thalamus",[1],45.4 μg equivalents/g
same,"Radioactivity concentration, Thymus",[1],153 μg equivalents/g
same,"Radioactivity concentration, Thyroid",[1],373 μg equivalents/g
same,"Radioactivity concentration, Whole Brain",[1],48.8 μg equivalents/g
same,"Radioactivity concentration, Adipose - Brown",[2],1917 μg equivalents/g
same,"Radioactivity concentration, Adipose - Brown (Vessel Wall)",[2],1017 μg equivalents/g
same,"Radioactivity concentration, Adipose - Subcutaneous",[2],1498 μg equivalents/g
same,"Radioactivity concentration, Adipose - Visceral",[2],1500 μg equivalents/g
same,"Radioactivity concentration, Adrenal Gland",[2],2346 μg equivalents/g
same,"Radioactivity concentration, Bladder Wall",[2],108 μg equivalents/g
same,"Radioactivity concentration, Blood - QWBA",[2],34.3 μg equivalents/g
same,"Radioactivity concentration, Bone Marrow",[2],113 μg equivalents/g
same,"Radioactivity concentration, Bone Surface",[2],7.66 μg equivalents/g
same,"Radioactivity concentration, Cecum",[2],95.7 μg equivalents/g
same,"Radioactivity concentration, Cerebellum",[2],54.9 μg equivalents/g
same,"Radioactivity concentration, Cerebrum",[2],39.9 μg equivalents/g
same,"Radioactivity concentration, Choroid Plexus",[2],131 μg equivalents/g
